Results taken from patent US12187705B2, “Heteroaryl-triazole and heteroaryl-tetrazole compounds as pesticides” (Bayer Aktiengesellschaft, priority 2018, dated 2025).

Key:
Type in all cases: in vivo
Nilaparvata lugens = Nilaparvata lugens spray test; details: Nilaparvata lugens, in Oryza sativa, 96 h
Procedure: Nilaparvata lugens—Spray Test
(§1) To produce a suitable preparation of active compound, 1 part by weight of active compound is mixed with the stated amount of solvents and is diluted with water, containing an emulsifier concentration of 1000 ppm, to the desired concentration. Further test concentrations are prepared by dilution with emulsifier containing water.
Rice plants (Oryza sativa) are sprayed with a preparation of the active ingredient of the desired concentration and the plants are infested with the brown planthopper (Nilaparvata lugens).
After 4 days mortality in % is determined. 100% means all planthoppers have been killed and 0% means none of the planthoppers have been killed.

Diabrotica balteata = Diabrotica balteata spray test; details: Diabrotica balteata, 168 h; 160 μg/well, wheat seeds, after 7 days; read-out: efficacy (seedlings grown)
Procedure: Diabrotica balteata—Spray Test
as §1, with “solvent,” for “solvents”, “and the concentrate” for “and”
Soaked wheat seeds (Triticum aestivum) are placed in a multiple well plate filled with agar and some water and are incubated for 1 day to germinate (5 seeds per well). The germinated wheat seeds are sprayed with a test solution containing the desired concentration of the active ingredient. Afterwards each unit is infected with 10-20 larvae of the banded cucumber beetle (Diabrotica balteata).
After 7 days efficacy in % is determined. 100% means all the seedlings have grown up like in the untreated, uninfected control; 0% means none of the seedlings have grown.

Myzus persicae = Myzus persicae oral test; details: 120 h
Procedure: To produce a suitable preparation of active compound, 1 part by weight of active compound is mixed with the stated amount of solvent, and the concentrate is diluted with water to the desired concentration.
50 μl compound solution is filled in microtiter plates and 150 μl IPL41 insect medium (33%+15% sugar) is added to obtain a total volume of 200 μl per well. Afterwards the plates are sealed with parafilm through which a mixed population of the green peach aphid (Myzus persicae) can suck on the compound preparation.
After 5 days mortality in % is determined. 100% means all aphids have been killed and 0% means none of the aphids have been killed.

Nezara viridula = Nezara viridula spray test; details: in Hordeum vulgare, 96 h
Procedure: Nezara viridula—Spray Test
as §1, with “solvent,” for “solvents”, “and the concentrate” for “and”
Barley plants (Hordeum vulgare) infested with larvae of the southern green stink bug (Nezara viridula) are sprayed with a test solution containing the desired concentration of the active ingredient.
After 4 days mortality in % is determined. 100% means all the stink bugs have been killed; 0% means none of the stink bugs have been killed.

Spodoptera frugiperda = Spodoptera frugiperda spray test; details: in Zea mays, 168 h
Procedure: Spodoptera frugiperda—Spray Test
as §1
Maize (Zea mays) leaf sections are sprayed with a preparation of the active ingredient of the desired concentration. Once dry, the leaf sections are infested with fall armyworm larvae (Spodoptera frugiperda).
After 7 days mortality in % is determined. 100% means all caterpillars have been killed and 0% means none of the caterpillars have been killed.

Boophilus microplus = Boophilus microplus injection test; details: Rhipicephalus microplus, 168 h, 20 μg/animal, egg deposition after 7 days, read-out: efficacy (infertile eggs)
Procedure: Boophilus microplus—Injection Test
(§2) Solvent: dimethyl sulfoxide
To produce a suitable preparation of active compound, 10 mg of active compound are dissolved in 0.5 ml solvent, and the concentrate is diluted with solvent to the desired concentration.
Five adult engorged female ticks (Boophilus microplus) are injected with 1 μl compound solution into the abdomen. The ticks are transferred into replica plates and incubated in a climate chamber.
After 7 days egg deposition of fertile eggs is monitored. Eggs where fertility is not visible are stored in a climate chamber till hatching after about 42 days. An efficacy of 100% means all eggs are infertile; 0% means all eggs are fertile.

Ctenocephalides felis [1] = assay: Ctenocephalides felis oral test; details: Ctenocephalides felis, in Bos taurus, po, 48 h
Procedure: Ctenocephalides felis—Oral Test
as §2
To produce a suitable preparation of active compound, 10 mg of active compound are dissolved in 0.5 ml solvent, and the concentrate is diluted with cattle blood to the desired concentration.
Approximately 20 adult unfed cat fleas (Ctenocephalides felis) are placed in flea chambers. The blood chamber, sealed with parafilm on the bottom, are filled with cattle blood supplied with compound solution and placed on the gauze covered top of the flea chamber, so that the fleas are able to suck the blood. The blood chamber is heated to 37° C. whereas the flea chamber is kept at room temperature.
After 2 days mortality in % is determined. 100% means all the fleas have been killed; 0% means none of the fleas have been killed.

[2] = test system: Aedes aegypti strain MONHEIM; assay: Aedes aegypti test (AEDSAE surface treatment & contact assay); details: 24 hours after contact, read-out: efficacy (mortality); for mortality at 4 mg/m2: surface concentration 4 mg/m^2, 30 minutes exposure; for mortality at 20 mg/m2: surface concentration 20 mg/m^2, 30 minutes exposure
Procedure: Aedes aegypti Test (AEDSAE Surface Treatment & Contact Assay)
(§3) Solvent: Aceton+2000 ppm rapeseed oil methyl ester (RME)
(§4) In order to produce a sufficient, active ingredient containing solution it is necessary to solve the test-compound in the solvent-mix (Acetone at 2 mg/ml/RME 2000 ppm). This solution is pipetted onto a glazed tile and after evaporation of the Acetone, adult mosquitoes of the species Aedes aegypti strain MONHEIM are placed onto the dried surface. The exposure time is 30 minutes.
(§5) Mortality in percent (%) is determined 24 hours after contact to the treated surface. 100% mortality means that all test-insects are dead, whereas 0% means that not a single insect died.

[3] = test system: Culex quinquefasciatus strain P00; assay: Culex quinquefasciatus test (CULXFA surface treatment & contact assay); details: 24 hours after contact, read-out: efficacy (mortality); for mortality at 20 mg/m2: surface concentration 20 mg/m^2, 30 minutes exposure; for mortality at 4 mg/m2: surface concentration 4 mg/m^2, 30 minutes exposure
Procedure: Culex quinquefasciatus Test (CULXFA Surface Treatment & Contact Assay)
as §3
as §4, with “Culex quinquefasciatus” for “Aedes aegypti”, “P00” for “MONHEIM”
as §5

[4] = test system: Anopheles funestus strain FUMOZ-R; assay: Anopheles funestus test (ANPHFU surface treatment & contact assay); details: 24 hours after contact, read-out: efficacy (mortality); for mortality at 4 mg/m2: surface concentration 4 mg/m^2, 30 minutes exposure
Procedure: Anopheles funestus Test (ANPHFU Surface Treatment & Contact Assay)
as §3
as §4, with “Anopheles funestus” for “Aedes aegypti”, “FUMOZ-R (Hunt et al., Med Vet Entomol. 2005 September; 19(3):271-5)” for “MONHEIM”
as §5

Ctenocephalides felis [5] = assay: Ctenocephalides felis in-vitro contact test adult cat flea; details: Ctenocephalides felis; 5 μg/cm^2 (=500 g/ha), after 48 hours; read-out: efficacy (fleas dead or moribund)
Procedure: Ctenocephalides felis—In-Vitro Contact Test Adult Cat Flea
9 mg compound is solved in 1 ml acetone and diluted with acetone to the desired concentration. 250 μl of the test solution is filled in 25 ml glass test tubes and homogeneously distributed on the inner walls by rotation and tilting on a shaking device (2 h at 30 rpm). With a compound concentration of 900 ppm, an inner surface of 44.7 cm^2 and a homogeneous distribution, a dose of 5 μg/cm^2 is achieved.
After the solvent has evaporated, each test tube is filled with 5-10 adult cat fleas (Ctenocephalides felis), closed with a perforated lid and incubated in a lying position at room temperature and relative humidity. After 48 hours efficacy is determined. The fleas are patted on the ground of the tubes and are incubated on a heating plate at 45-50° C. for at most 5 minutes. Immotile or uncoordinated moving fleas, which are not able to escape the heat by climbing upwards, are marked as dead or moribund.
An efficacy of 100% means all fleas are dead or moribund; 0% means no fleas are dead or moribund.

Row | Structure (SMILES) | mortality at 500 g/ha (Nilaparvata lugens) [%] | pest or weed control at 160 µg/disc, 160 µg/well (Diabrotica balteata) [%] | mortality at 500 g/ha (Nezara viridula) [%] | mortality at 500 g/ha (Spodoptera frugiperda) [%] | mortality at 100 ppm (Ctenocephalides felis [1]) [%] | mortality at 20 mg/m2 [2] [%] | also measured
1 | CC(c1ncnn1-c1ncccn1)N(CC1CC1)C(=O)c1c(F)cccc1F (stereo not shown) [Example I-018] | 100 | – | – | – | – | – | –
2 | C[C@H](NC(=O)c1cc(Cl)cc(S(=O)(=O)C(F)(F)F)c1)c1ncnn1-c1ncccn1 [Example I-033, 3-chloro-N-{(1S)-1-[1-(pyrimidin-2-yl)-1H-1,2,4-triazol-5-yl]ethyl}-5-[(trifluoromethyl)sulfonyl]benzamide] | 100 | 100 | 100 | 100 | – | – | mortality at 4 ppm (Myzus persicae): 100%
3 | CC(NC(=O)c1cc(Cl)cc(-n2cncn2)c1)c1ncnn1-c1ncccn1 (stereo not shown) [Example I-049] | 100 | 100 | 100 | – | 100 | 90 to 100 | pest or weed control at 0.02 mg (Boophilus microplus): 100%; mortality at 4 mg/m2 [2]: 80 to 100%; mortality at 20 mg/m2 [3]: 80 to 100%; mortality at 4 mg/m2 [4]: 85 to 100%; mortality at 20 mg/m2 ([4]; surface concentration 20 mg/m^2, 30 minutes exposure): 85 to 100%
4 | CC(C)S(=O)(=O)c1cc(Cl)cc(C(=O)N[C@@H](C)c2ncnn2-c2ncccn2)c1 [Example I-051, 3-chloro-5-(isopropylsulfonyl)-N-{(1S)-1-[1-(pyrimidin-2-yl)-1H-1,2,4-triazol-5-yl]ethyl}benzamide] | – | 100 | 100 | 100 | 100 | – | pest or weed control at 5 µg/cm2, 5 µg/cm2 (Ctenocephalides felis [5]): 80%; pest or weed control at 0.02 mg (Boophilus microplus): 100%; mortality at 4 ppm (Myzus persicae): 100%
5 | COC[C@H](NC(=O)c1cc(Cl)cc(S(C)(=O)=O)c1)c1ncnn1-c1ncccn1 [Example I-059] | 100 | – | – | – | 100 | – | pest or weed control at 5 µg/cm2, 5 µg/cm2 (Ctenocephalides felis [5]): 80%
6 | C[C@H](NC(=O)c1cc(Cl)cc(S(C)(=O)=O)c1)c1ncnn1-c1ccc(OC(F)F)cn1 [Example I-063] | – | 100 | 100 | 100 | – | 90 to 100 | mortality at 4 ppm (Myzus persicae): 100%; mortality at 4 mg/m2 [2]: 80 to 100%; mortality at 4 mg/m2 [3]: 80 to 100%; mortality at 20 mg/m2 [3]: 80 to 100%
7 | C[C@@H](NC(=O)c1cc(Cl)cc(S(=O)(=O)C(F)(F)F)c1)c1ncnn1-c1nccs1 [Example I-077] | – | 100 | – | 100 | 90 | 90 to 100 | pest or weed control at 0.02 mg (Boophilus microplus): 100%
8 | C[C@@H](NC(=O)c1cc(Cl)cc(S(C)(=O)=O)c1)c1ncnn1-c1ccc(C(F)(F)F)cn1 [Example I-089] | – | 100 | 100 | 100 | 100 | 90 to 100 | pest or weed control at 5 µg/cm2, 5 µg/cm2 (Ctenocephalides felis [5]): 100%; mortality at 4 mg/m2 [2]: 80 to 100%; mortality at 4 mg/m2 [3]: 80 to 100%; mortality at 20 mg/m2 [3]: 80 to 100%
9 | C[C@H](NC(=O)c1cc(Cl)cc(S(=O)(=O)CC(F)(F)F)c1)c1ncnn1-c1ncccn1 [Example I-093, 3-chloro-N-{(1S)-1-[1-(pyrimidin-2-yl)-1H-1,2,4-triazol-5-yl]ethyl}-5-[(2,2,2-trifluoroethyl)sulfonyl]benzamide] | – | 100 | 100 | – | – | 90 to 100 | mortality at 4 ppm (Myzus persicae): 90%; mortality at 4 mg/m2 [2]: 80 to 100%; mortality at 4 mg/m2 [3]: 80 to 100%; mortality at 20 mg/m2 [3]: 80 to 100%; mortality at 4 mg/m2 [4]: 85 to 100%
10 | CC(NC(=O)c1cc(Cl)cc(-n2ccc(C(F)(F)F)n2)c1)c1ncnn1-c1ncccn1 (stereo not shown) [Example I-094] | – | 100 | – | 83 | – | – | –
11 | C[C@@H](NC(=O)c1cc(Cl)cc(S(C)(=O)=O)c1)c1nc(C(F)(F)F)nn1-c1ccc(C#N)cn1 [Example I-110] | – | – | 100 | 100 | – | – | –
12 | C[C@@H](NC(=O)c1cncc(-c2ccc(F)cc2)c1)c1ncnn1-c1ncccn1 [Example I-111] | 100 | – | – | – | – | – | –
13 | C[C@@H](NC(=O)c1cc(F)cc(C2CC2)c1)c1ncnn1-c1ccc(C#N)cn1 [Example I-113] | – | 100 | 90 | 100 | – | – | –
14 | C[C@H](NC(=S)c1cc(F)cc(C2CC2)c1)c1ncnn1-c1ccc(C#N)cn1 [Example I-120, N-{(1S)-1-[1-(5-cyanopyridin-2-yl)-1H-1,2,4-triazol-5-yl]ethyl}-3-cyclopropyl-5-fluorobenzenecarbothioamide] | 100 | 100 | 100 | 100 | – | – | –
15 | C[C@@H](NC(=O)c1cc(-c2ccc(F)cc2)cc(C(F)(F)F)c1)c1ncnn1-c1ccc(C#N)cn1 [Example I-123] | – | 100 | – | 100 | – | – | –
